# Test results: US20080207694A1, “Hydroxamates as Histone Deacetylase Inhibitors and Pharmaceutical Formulations Containing Them” (priority 2005, published 2008)
# What was measured:
# [1] = system: Human colon carcinoma cells HCT-116; test: Cytotoxic activity on culture of human colon carcinoma cells HCT-116 (Alamar Blue); type: cell-based; details: HCT-116 cells, 72 hours after addition of compounds, Alamar Blue viability
# Experimental: (§1) The activity of the compounds as histone deacetylase (HDAC) inhibitors was measured using an in vitro acetylation assay. The compounds were then evaluated as inhibitors of proliferation of human tumor cell cultures.
# 24 hours after seeding, the compounds at different concentrations are added. […] 72 hours after addition of the compounds, cell viability is measured by means of the dye Alamar Blue.
# [2] = system: histone deacetylase (HDAC), nuclear extract of Hela cells; test: Deacetylase activity on nuclear extract of HeLa cells (Fluor de Lys kit); type: biochemical, human; details: percent inhibition relative to control without inhibitor, compound at 0.1 μM
# Experimental: as §1
# Deacetylase Activity on Nuclear Extract of Hela Cells (Human Cervical Cancer Cell)
# The assay (Fluor de Lys™ kit, BioMol) is divided into two steps: in the first step the substrate which comprises an acetylated lysine residue is reacted with the nuclear extract (HeLa) containing the enzymatic activity in the presence and absence of inhibitors. In the second step a fluorogenic reagent is added which highlights the deacetylated residues. A reduction in fluorescence is obtained where there has been inhibition of the deacetylase activity. The result is finally expressed as percent inhibition relative to the control without inhibitor at a concentration of 0.1 μM.
SMILES,IC50 [1],% inhib. 0.1 μM [2],"IC50 ([1]; Homo sapiens, HCT-116, 72 h)"
"N[C@@H](CC(=O)N1CCC(CCCC(=O)NO)CC1)c1ccc2ccccc2c1 [Ex 149, 4-[1-(3-(S)-Amino-3-naphthalen-2-yl-propionyl)-piperidin-4-yl]-N-hydroxy-butyramide]",130 nM,62%,–
"O=C(CCCC1CCN(C(=O)Nc2cccc(-c3ccccc3)c2)CC1)NO [Ex 150, 4-(3-Hydroxycarbamoyl-propyl)-piperidine-1-carboxylic acid biphenyl-3-ylamide]",–,57%,180 nM
"O=C(CCCC1CCN(C(=O)Nc2ccc(-c3ccccn3)cc2)CC1)NO [Ex 151, 4-(3-Hydroxycarbamoyl-propyl)-piperidine-1-carboxylic acid (4-pyridin-2-yl-phenyl)-amide]",–,50%,100 nM
"N[C@H](CC(=O)N1CCC(CCCC(=O)NO)CC1)Cc1cccc2ccccc12 [Ex 154, 4-[1-(3-(S)-Amino-4-naphthalen-1-yl-butyryl)-piperidin-4-yl]-N-hydroxy-butyramide]",–,82%,530 nM
"O=C(CCCC1CCN(C(=O)NCc2csc3ccccc23)CC1)NO [Ex 157, N-(benzo[b]thiophen-3-ylmethyl)-4-(4-(hydroxyamino)-4-oxobutyl)piperidine-1-carboxamide]",–,68%,600 nM
"N[C@@H](CC(=O)N1CCC(CCCC(=O)NO)CC1)c1cccc2ccccc12 [Ex 158, 4-[1-(3-(S)-Amino-3-naphthalen-1-yl-propionyl)-piperidin-4-yl]-N-hydroxy-butyramide]",–,60%,900 nM
"N[C@H](CC(=O)N1CCC(CCCC(=O)NO)CC1)c1cccc2ccccc12 [Ex 159, 4-[1-(3-(R)-Amino-3-naphthalen-1-yl-propionyl)-piperidin-4-yl]-N-hydroxy-butyramide]",–,79%,200 nM
COc1c(NC(=O)N2CCC(CCCC(=O)NO)CC2)ccc2ccccc12 [Ex 160],200 nM,67%,–
COc1cc2ccccc2cc1NC(=O)N1CCC(CCCC(=O)NO)CC1 [Ex 161],30 nM,76%,–
"O=C(CCCC1CCN(C(=O)CCNCc2ccccc2)CC1)NO [Ex 164, 4-[1-(3-Benzylamino-propionyl)-piperidin-4-yl]-N-hydroxy-butyramide]",–,51%,600 nM
"O=C(CCCC1CCN(C(=O)Nc2ccc(-c3cccc(F)c3)cc2)CC1)NO [Ex 165, 4-(3-Hydroxycarbamoyl-propyl)-piperidine-1-carboxylic acid (3′-fluoro-biphenyl-4-yl)-amide]",–,64%,700 nM
"N[C@@H](CC(=O)N1CCC(CCCC(=O)NO)CC1)c1cccc(Cl)c1 [Ex 168, 4-{1-[3-(S)-Amino-3-(3-chloro-phenyl)-propionyl]-piperidin-4-yl}-N-hydroxy-butyramide]",90 nM,55%,–
"O=C(CCCC1CCN(C(=O)NCCCc2c[nH]c3ccccc23)CC1)NO [Ex 170, N-(3-(1H-indol-3-yl)propyl)-4-(4-(hydroxyamino)-4-oxobutyl)piperidine-1-carboxamide]",–,51%,200 nM
"N[C@@H](CC(=O)N1CCC(CCCC(=O)NO)CC1)c1cccc(Cl)c1 [Ex 171, 4-{1-[3-(S)-Amino-3-(3-chloro-phenyl)-propionyl]-piperidin-4-yl}-N-hydroxy-butyramide]",400 nM,45%,–
"N[C@@H](CC(=O)N1CCC(CCCC(=O)NO)CC1)c1cccc(F)c1 [Ex 175, 4-{1-[3-(S)-Amino-3-(3-fluoro-phenyl)-propionyl]-piperidin-4-yl}-N-hydroxy-butyramide]",–,70%,600 nM
"O=C(CCCC1CCN(C(=O)Nc2ccc(-c3csnn3)cc2)CC1)NO [Ex 178, 4-(3-Hydroxycarbamoyl-propyl)-piperidine-1-carboxylic acid (4-[1,2,3]thiadiazol-4-yl-phenyl)-amide]",–,45%,300 nM
